Reference: patent US20030032587A1, “Urocortin peptides” (The Salk Institute for Biological Studies, priority 1995, published 2003)
Bridges are numbered along the chain shown (N, C = ends). Where no end group is shown, it is not given here. [ ]: non-standard residue; d: D form.

B1: (cyclo 29-32) [D-Pro10,D-Phe11, Glu29, D-Glu31, Lys32]-Ucn(10-40) (peptide)
peptide: [dP][dF]HLLRTLLELARTQSQREEA[dE]KNRIIFDSV-NH2
modifications: lactam 20-23; N-terminus assumed
SMILES: CC[C@H](C)[C@H](NC(=O)[C@H](CCCNC(=N)N)NC(=O)[C@H](CC(N)=O)NC(=O)[C@@H]1CCCCNC(=O)CC[C@H](NC(=O)[C@H](CCC(=O)O)NC(=O)[C@H](CCCNC(=N)N)NC(=O)[C@H](CCC(N)=O)NC(=O)[C@H](CO)NC(=O)[C@H](CCC(N)=O)NC(=O)[C@@H](NC(=O)[C@H](CCCNC(=N)N)NC(=O)[C@H](C)NC(=O)[C@H](CC(C)C)NC(=O)[C@H](CCC(=O)O)NC(=O)[C@H](CC(C)C)NC(=O)[C@H](CC(C)C)NC(=O)[C@@H](NC(=O)[C@H](CCCNC(=N)N)NC(=O)[C@H](CC(C)C)NC(=O)[C@H](CC(C)C)NC(=O)[C@H](Cc2c[nH]cn2)NC(=O)[C@@H](Cc2ccccc2)NC(=O)[C@H]2CCCN2)[C@@H](C)O)[C@@H](C)O)C(=O)N[C@@H](C)C(=O)N[C@H](CCC(=O)O)C(=O)N1)C(=O)N[C@H](C(=O)N[C@@H](Cc1ccccc1)C(=O)N[C@@H](CC(=O)O)C(=O)N[C@@H](CO)C(=O)N[C@H](C(N)=O)C(C)C)[C@@H](C)CC
B2: (cyclo 29-32) [Pro10,D-Phe11, Glu29,D-Glu31, Lys32]-Ucn(10-40) (peptide)
peptide: P[dF]HLLRTLLELARTQSQREEA[dE]KNRIIFDSV-NH2
modifications: lactam 20-23; N-terminus assumed
SMILES: CC[C@H](C)[C@H](NC(=O)[C@H](CCCNC(=N)N)NC(=O)[C@H](CC(N)=O)NC(=O)[C@@H]1CCCCNC(=O)CC[C@H](NC(=O)[C@H](CCC(=O)O)NC(=O)[C@H](CCCNC(=N)N)NC(=O)[C@H](CCC(N)=O)NC(=O)[C@H](CO)NC(=O)[C@H](CCC(N)=O)NC(=O)[C@@H](NC(=O)[C@H](CCCNC(=N)N)NC(=O)[C@H](C)NC(=O)[C@H](CC(C)C)NC(=O)[C@H](CCC(=O)O)NC(=O)[C@H](CC(C)C)NC(=O)[C@H](CC(C)C)NC(=O)[C@@H](NC(=O)[C@H](CCCNC(=N)N)NC(=O)[C@H](CC(C)C)NC(=O)[C@H](CC(C)C)NC(=O)[C@H](Cc2c[nH]cn2)NC(=O)[C@@H](Cc2ccccc2)NC(=O)[C@@H]2CCCN2)[C@@H](C)O)[C@@H](C)O)C(=O)N[C@@H](C)C(=O)N[C@H](CCC(=O)O)C(=O)N1)C(=O)N[C@H](C(=O)N[C@@H](Cc1ccccc1)C(=O)N[C@@H](CC(=O)O)C(=O)N[C@@H](CO)C(=O)N[C@H](C(N)=O)C(C)C)[C@@H](C)CC

Columns and labels:
[1] = test system: rat anterior pituitary cells; assay: ACTH secretion by anterior pituitary cell cultures in the presence of a challenge dose of ovine CRF (antagonist test); type: cell-based; details: for bioactivity as Ucn antagonists: result in words, test not specified
Description: (§1) A straightforward assay using rat anterior pituitary cells in monolayer culture can be carried out to determine whether a candidate peptide thereof will function as a CRF agonist and stimulate ACTH secretion by activating CRF receptors on such cells. The procedure which is used is that generally set forth in Endocrinology, 91, supra. A very similar assay is used to test for antagonistic properties, using a challenge dose of oCRF or the like.
An in vivo test measuring elevation of mean arterial blood pressure as a result of iv injection is also simply and straightforwardly performed.

[2] = test system: mammalian mean arterial blood pressure; assay: in vivo test measuring elevation of mean arterial blood pressure as a result of iv injection; details: result in words; indicative of a Ucn antagonist
Description: The peptide, Ucn(11-40), having the amino acid sequence (see SEQ ID NO: 8): […] is synthesized in the manner described in Example I. To evaluate the biological activity of a candidate peptide as a Ucn antagonist (which will be indicative of its effective binding to CRF receptors), the previously mentioned assay from Endocrinology, 91, supra, is run in the presence of a challenge dose of ovine CRF. […] An in vivo test measuring elevation of mean arterial blood pressure as a result of iv injection is also simply and straightforwardly performed.

[3] = test system: mammalian systemic blood pressure; assay: mammalian vasodilatory-hypotensive activity; type: in vivo; details: result in words
[4] = test system: primary murine anterior pituitary cells; type: cell-based; details: for ACTH secretion in vitro, times as effective as r/hCRF (confidence limits): anterior pituitary cell cultures, relative to r/hCRF; for stimulates the secretion of ACTH and β-END-LI (β-endorphin): result in words
Description: as §1
To test the ability of purified Ucn or another candidate Ucn-like peptide to function as a CRF agonist and to promote ACTH production and/or secretion, cultures of dispersed primary murine anterior pituitary cells (0.15×10^6 cells/well are used), as generally described in Vale et al. Meth. Enzym., 103, 565-577 (1983), and in Endocrinology, 91, 562 (1972). These cultures are maintained in 0.5 ml/well of β-PJ (a reagent available from Kansas City Biochemicals) containing 2% fetal bovine serum. On the morning of culture day 5, the cells are washed 3 times with β-PJ containing 0.1% bovine serum albumin and then incubated for 1 hour at 37° C. in the same medium. The medium is then replaced with Ucn, or an analog thereof, diluted in β-PJ containing 0.1% bovine serum albumin. Incubations are terminated after 3 hours, at which time the medium is removed and stored at −20° C. until ACTH radioimmunoassays are performed using a suitable kit, such as that commercially available from Diagnostic Products Corporation of Los Angeles, Calif. Secreted ACTH is measured using Allfit computer program with results expressed as the average±s.e.m. of 3 replicate bioassays.

[5] = target: CRF receptors on anterior pituitary cells in culture; assay: cell-based or functional assay

Molecule	vasodilatory-hypotensive activity, including lowering systemic blood pressure and stimulating the secretion of ACTH [3]	ACTH secretion in vitro, times as effective as r/hCRF (confidence limits) [4]	other results
H-D-Phe-His-Leu-Leu-Arg-Thr-Leu-Leu-Glu-Leu-Ala-Arg-Thr-Gln-Ser-Gln-Arg-Glu-Glu-Ala-D-Glu-Lys-Asn-Arg-Ile-Ile-Phe-Asp-Ser-Val-NH2 (H-[dF]HLLRTLLELARTQSQREEA[dE]KNRIIFDSV-NH2; lactam 19-22 (inferred))	–	–	inhibition of ACTH secretion in vitro, times as effective as the Standard Antagonist (confidence limits) ([1]; challenge dose of ovine CRF, relative to [D-Phe12,Nle21,38]-r/hCRF(12-41)): 4.72 (2.19-10.00); vasoconstrictive activity causing elevation of mean arterial blood pressure [2]: significant mammalian vasoconstrictive activity
H-Asn-Pro-Ser-Leu-Ser-Ile-Asp-Leu-Thr-Phe-His-Leu-Leu-Arg-Thr-Leu-Leu-Glu-Leu-Ala-Arg-Thr-Gln-Ser-Gln-Arg-Glu-Arg-Ala-Glu-Gln-Asn-Arg-Ile-Ile-Phe-Asp-Ser-Val-NH2 (H-NPSLSIDLTFHLLRTLLELARTQSQRERAEQNRIIFDSV-NH2) [hUcn(2-40)]	significant mammalian vasodilatory-hypotensive activity	–	–
H-[dY]DNPSLSIDLTFHLLRTLLELARTQSQRERAEQNRIIFDSV-NH2 [[D-Tyr^∘]hUcn(1-40)]	significant mammalian vasodilatory-hypotensive activity	1.23 (0.60-2.54)	–
H-Asp-Asn-Pro-Ser-Leu-Ser-Ile-Asp-Leu-Thr-Phe-His-Leu-Leu-Arg-Thr-Leu-Leu-Glu-Leu-Ala-Arg-Thr-Gln-Ser-Gln-Arg-Glu-Arg-Ala-Glu-Gln-Asn-Arg-Ile-Ile-Phe-Asp-Ser-Val-NH2 (H-DNPSLSIDLTFHLLRTLLELARTQSQRERAEQNRIIFDSV-NH2) [Human Ucn(1-40)]	significant mammalian vasodilatory-hypotensive activity	3.10 (1.41-6.65)	–
Ac-Pro-D-Pro-Leu-Ser-Ile-Asp-Leu-Thr-D-Phe-His-Leu-Leu-Arg-Thr-Leu-Leu-Glu-Leu-Ala-Arg-Thr-Gln-Ser-Gln-Arg-Glu-Glu-Ala-Glu-Lys-Asn-Arg-Ile-Ile-Phe-Asp-Ser-Val-NH2 (Ac-P[dP]LSIDLT[dF]HLLRTLLELARTQSQREEAEKNRIIFDSV-NH2; lactam 27-30 (inferred))	causes vasodilatory-hypotensive activity	9.90 (4.48-22.85)	stimulates the secretion of ACTH and β-END-LI (β-endorphin) [4]: stimulates the secretion of ACTH and β-END-LI
Ac-Pro-D-Ser-Leu-Ser-Ile-Asp-Leu-Thr-D-Phe-His-Leu-Leu-Arg-Thr-Leu-Leu-Glu-Leu-Ala-Arg-Thr-Gln-Ser-Gln-Arg-Glu-Glu-Ala-Glu-Lys-Asn-Arg-Ile-Ile-Phe-Asp-Ser-Val-NH2 (Ac-P[dS]LSIDLT[dF]HLLRTLLELARTQSQREEAEKNRIIFDSV-NH2; lactam 27-30 (inferred))	causes vasodilatory-hypotensive activity	5.69 (2.43-14.49)	stimulates the secretion of ACTH and β-END-LI (β-endorphin) [4]: stimulates the secretion of ACTH and β-END-LI
Ac-Pro-Ser-Leu-Ser-Ile-Asp-Leu-Thr-D-Phe-His-Leu-Leu-Arg-Thr-Leu-Leu-Glu-Leu-Ala-Arg-Thr-Gln-Ser-Gln-Arg-Glu-Glu-Ala-D-Glu-Lys-Asn-Arg-Ile-Ile-Phe-Asp-Ser-Val-NH2 (Ac-PSLSIDLT[dF]HLLRTLLELARTQSQREEA[dE]KNRIIFDSV-NH2; lactam 27-30 (inferred))	causes vasodilatory-hypotensive activity	6.14 (2.83-14.05)	stimulates the secretion of ACTH and β-END-LI (β-endorphin) [4]: stimulates the secretion of ACTH and β-END-LI
[Ac-Thr^10]Ucn(10-40)	–	–	bioactivity as Ucn antagonists [1]: bioactivity as Ucn antagonists
Ucn (10-40) (TFHLLRTLLELARTQSQRERAEQNRIIFDSV; ends and bridges not checked; UniProt P55089 92-122, looked up, fragment)	–	–	bioactivity as Ucn antagonists [1]: bioactivity as Ucn antagonists
H-DNPSLSIDLT[dF]HLLRTLLELARTQSQRERAEQNRIIFDSV-NH2 [[D-Phe^11]-hUcn]	significant mammalian vasodilatory-hypotensive activity	–	–
H-Tyr-Asp-Asp-Pro-Pro-Leu-Ser-Ile-Asp-Leu-Thr-Phe-His-Leu-Leu-Arg-Thr-Leu-Leu-Glu-Leu-Ala-Arg-Thr-Gln-Ser-Gln-Arg-Glu-Arg-Ala-Glu-Gln-Asn-Arg-Ile-Ile-Phe-Asp-Ser-val-NH2 [[Tyr^∘]rUcn(1-40)]	significant mammalian vasodilatory-hypotensive activity	2.20 (1.28-3.88)	–
Ac-Pro-Ser-Leu-Ser-Ile-Asp-Leu-Thr-Phe-His-Leu-Leu-Arg-Thr-Leu-Leu-Glu-Leu-Ala-Arg-Thr-Gln-Ser-Gln-Arg-Glu-Arg-Ala-Glu-Gln-Asn-Arg-Ile-Ile-Phe-Asp-Ser-Val-NH2 (Ac-PSLSIDLTFHLLRTLLELARTQSQRERAEQNRIIFDSV-NH2) [[Ac-Pro^3]-hUcn(3-40)]	causes vasodilatory-hypotensive activity	–	stimulates the secretion of ACTH and β-END-LI (β-endorphin) [4]: stimulates the secretion of ACTH and β-END-LI
B1	–	–	antagonism of ACTH secretion under a challenge dose of ovine CRF, potency relative to the Standard Antagonist (times Standard Antagonist) [5]: 4.99
B2	–	–	antagonism of ACTH secretion under a challenge dose of ovine CRF, potency relative to the Standard Antagonist (times Standard Antagonist) [5]: 2.74
